In PubChem BioAssay AID1963844 (Molecular Pharmacology Branch, DTP, NCI, 2024):

Test system: 422866-222-R5-J1-PDC complex spheroid viability
Test: Anticancer human tumor 422866-222-R5-J1-PDC patient-derived pancreatic adenocarcinoma cell line growth inhibition [POLQ]
Conditions: for IC50: curve of first compound; for viability, T/C: stronger effect = lower value
Method in brief: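 Growth inhibition in 3D: complex spheroids (tumor PDC, HUVEC, MSC) treated with POLQ inhibitor combinations; where Cmax unknown, highest tested concentration 10 microM, except SN-38 at 1 microM.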

[1] = second compound 0.0316 µM, first compound 0.0316 µM
[2] = second compound 0.0316 µM, first compound 0.1 µM
[3] = second compound 0.0316 µM, first compound 0.316 µM
[4] = second compound 0.0316 µM, first compound 1 µM
[5] = second compound 0.0316 µM, first compound 3.16 µM
[6] = second compound 0.0316 µM, first compound 10 µM
[7] = second compound 0.1 µM, first compound 0.0316 µM
[8] = second compound 0.1 µM, first compound 0.1 µM
[9] = second compound 0.1 µM, first compound 0.316 µM
[10] = second compound 0.1 µM, first compound 1 µM
[11] = second compound 0.1 µM, first compound 3.16 µM
[12] = second compound 0.1 µM, first compound 10 µM
[13] = second compound 0.316 µM, first compound 0.0316 µM
[14] = second compound 0.316 µM, first compound 0.1 µM
[15] = second compound 0.316 µM, first compound 0.316 µM
[16] = second compound 0.316 µM, first compound 1 µM
[17] = second compound 0.316 µM, first compound 3.16 µM
[18] = second compound 0.316 µM, first compound 10 µM
[19] = second compound 1 µM, first compound 0.0316 µM
[20] = second compound 1 µM, first compound 0.1 µM
[21] = second compound 1 µM, first compound 0.316 µM
[22] = second compound 1 µM, first compound 1 µM
[23] = second compound 1 µM, first compound 3.16 µM
[24] = second compound 1 µM, first compound 10 µM
[25] = second compound 3.16 µM, first compound 0.0316 µM
[26] = second compound 3.16 µM, first compound 0.1 µM
[27] = second compound 3.16 µM, first compound 0.316 µM
[28] = second compound 3.16 µM, first compound 1 µM
[29] = second compound 3.16 µM, first compound 3.16 µM
[30] = second compound 3.16 µM, first compound 10 µM
[31] = second compound 10 µM, first compound 0.0316 µM
[32] = second compound 10 µM, first compound 0.1 µM
[33] = second compound 10 µM, first compound 0.316 µM
[34] = second compound 10 µM, first compound 1 µM
[35] = second compound 10 µM, first compound 3.16 µM
[36] = second compound 10 µM, first compound 10 µM
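Note: spheroids exposed to compounds for one week before readout.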
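Throughout, for viability, T/C: percent of DMSO vehicle wells luminescence so 100% = untreated viability.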

For C#Cc1c(F)ccc2cc(O)cc(-c3ncc4c(N5CC6CCC(C5)N6)nc(OCC56CCCN5CC(F)C6)nc4c3F)c12 (stereo unspecified) + Nc1ccc(C#CCN(C(=O)Cc2ncc(C(F)(F)F)cc2C(F)(F)F)c2ccc(F)cc2)nn1, the IC50 (second compound 0.0316 µM) was 733 nM, the IC50 (second compound 0.1 µM) was 727 nM and the IC50 (second compound 0.316 µM) was 813 nM. The IC50 (second compound 1 µM) was 750 nM, the IC50 (second compound 3.16 µM) was 646 nM and the IC50 (second compound 10 µM) was 619 nM. The viability, T/C [1] was 95.4%, the viability, T/C [2] was 103% and the viability, T/C [3] was 62.8%. It also gave a viability, T/C [4] of 48.7%, a viability, T/C [5] of 26.8% and a viability, T/C [6] of 26%. It also gave a viability, T/C [7] of 101%, a viability, T/C [8] of 71.5% and a viability, T/C [9] of 67.6%. It also gave a viability, T/C [10] of 43.4%, a viability, T/C [11] of 32.1% and a viability, T/C [12] of 21.7%. The viability, T/C [13] was 88.2%, the viability, T/C [14] was 78.4% and the viability, T/C [15] was 66.2%. The viability, T/C [16] was 44.3%, the viability, T/C [17] was 37.1% and the viability, T/C [18] was 27.9%. The viability, T/C [19] was 102%, the viability, T/C [20] was 89.4% and the viability, T/C [21] was 67.4%. The viability, T/C [22] was 44.3%, the viability, T/C [23] was 30.6% and the viability, T/C [24] was 26%. For the same molecule, the viability, T/C [25] was 93.1%, the viability, T/C [26] was 93% and the viability, T/C [27] was 57%. For the same molecule, the viability, T/C [28] was 48.2%, the viability, T/C [29] was 26.6% and the viability, T/C [30] was 27.9%. For the same molecule, the viability, T/C [31] was 89.6%, the viability, T/C [32] was 92.2% and the viability, T/C [33] was 62.3%. It also gave a viability, T/C [34] of 41.7%, a viability, T/C [35] of 35.3% and a viability, T/C [36] of 27.7%.
For CC1COCCN1c1cc(C2(O)CC3CCC(C2)O3)c2cnn(-c3ccn[nH]3)c2n1 (stereo unspecified) + Nc1ccc(C#CCN(C(=O)Cc2ncc(C(F)(F)F)cc2C(F)(F)F)c2ccc(F)cc2)nn1, the IC50 (second compound 0.0316 µM) was greater than 10000 nM, the IC50 (second compound 0.1 µM) was less than 31.6 nM and the IC50 (second compound 0.316 µM) was less than 31.6 nM. It also gave an IC50 (second compound 1 µM) greater than 10000 nM, an IC50 (second compound 3.16 µM) of 10000 nM and an IC50 (second compound 10 µM) of less than 31.6 nM. It also gave a viability, T/C [1] of 72%, a viability, T/C [2] of 39.4% and a viability, T/C [3] of 40.7%. The viability, T/C [4] was 74.5%, the viability, T/C [5] was 73.5% and the viability, T/C [6] was 61.1%. It also gave a viability, T/C [7] of 58.2%, a viability, T/C [8] of 39.4% and a viability, T/C [9] of 48.5%. It also gave a viability, T/C [10] of 71.6%, a viability, T/C [11] of 83.6% and a viability, T/C [12] of 63.8%. The viability, T/C [13] was 61.3%, the viability, T/C [14] was 37% and the viability, T/C [15] was 42.2%. The viability, T/C [16] was 74.8%, the viability, T/C [17] was 73.8% and the viability, T/C [18] was 59.9%. It also gave a viability, T/C [19] of 64.3%, a viability, T/C [20] of 39.5% and a viability, T/C [21] of 37.3%. It also gave a viability, T/C [22] of 71.4%, a viability, T/C [23] of 65.5% and a viability, T/C [24] of 57.9%. For the same molecule, the viability, T/C [25] was 97.4%, the viability, T/C [26] was 38.7% and the viability, T/C [27] was 36.9%. The viability, T/C [28] was 77.2%, the viability, T/C [29] was 63.2% and the viability, T/C [30] was 69%. The viability, T/C [31] was 60.7%, the viability, T/C [32] was 41.5% and the viability, T/C [33] was 47.1%. The viability, T/C [34] was 83.8%, the viability, T/C [35] was 65.3% and the viability, T/C [36] was 63.4%.
Work on O=C(Nc1ccc(O)c(NS(=O)(=O)c2ccc(F)cc2)c1)c1ccc(-c2ccccc2)cc1 + Nc1ccc(C#CCN(C(=O)Cc2ncc(C(F)(F)F)cc2C(F)(F)F)c2ccc(F)cc2)nn1 yielded an IC50 (second compound 0.0316 µM) greater than 10000 nM, an IC50 (second compound 0.1 µM) greater than 10000 nM and an IC50 (second compound 0.316 µM) greater than 10000 nM. It also gave an IC50 (second compound 1 µM) greater than 10000 nM, an IC50 (second compound 3.16 µM) greater than 10000 nM and an IC50 (second compound 10 µM) greater than 10000 nM. The viability, T/C [1] was 98.8%, the viability, T/C [2] was 84.9% and the viability, T/C [3] was 81.6%. The viability, T/C [4] was 86.9%, the viability, T/C [5] was 83.7% and the viability, T/C [6] was 113%. The viability, T/C [7] was 105%, the viability, T/C [8] was 94.3% and the viability, T/C [9] was 97.1%. It also gave a viability, T/C [10] of 90.5%, a viability, T/C [11] of 99.8% and a viability, T/C [12] of 123%. The viability, T/C [13] was 88.7%, the viability, T/C [14] was 90% and the viability, T/C [15] was 94.2%. It also gave a viability, T/C [16] of 89.9%, a viability, T/C [17] of 97.3% and a viability, T/C [18] of 116%. It also gave a viability, T/C [19] of 107%, a viability, T/C [20] of 84.5% and a viability, T/C [21] of 92.6%. It also gave a viability, T/C [22] of 87.9%, a viability, T/C [23] of 88.6% and a viability, T/C [24] of 117%. For the same molecule, the viability, T/C [25] was 107%, the viability, T/C [26] was 99% and the viability, T/C [27] was 99.6%. It also gave a viability, T/C [28] of 78.7%, a viability, T/C [29] of 103% and a viability, T/C [30] of 109%. The viability, T/C [31] was 105%, the viability, T/C [32] was 85.2% and the viability, T/C [33] was 80.8%. The viability, T/C [34] was 93.8%, the viability, T/C [35] was 101% and the viability, T/C [36] was 102%.
